Data set [1] can be described thus: Microsomal stability assay. In kind it is in vitro ADME. As to conditions: human, human liver microsomes, pH 7.4, human liver microsomes, 37° C.; for half-life at 50 μM: read-out: T1/2, 50 μm microsomal stability assay. On the procedure:
50 μL test sample (50 mM), 25 μL human liver microsomes (20 mg/ml, BD Gentest, catalog no. 452161), 281 μL potassium phosphate buffer (100 mM, pH 7.4), 5 μL NaDPH regenerating system, solution B (BD Biosciences, catalog no. 451200), and 114 μL of water were pre-incubated for 5 min at 37° C. The reaction was initiated by the addition of 25 μL NaDPH regenerating system, solution A (BD Biosciences, catalog no. 451220). After an incubation period of 0, 15, 30, and 60 min at 37° C., 100 μL of the reaction mixture was transferred to an eppendorf tube, followed by addition of 100 μL chilled acetonitrile to quench the reaction. The sample was then centrifuged at 14,000 rpm for 5 min. The supernatant was submitted for LCMS analysis.

Data set [2] deals with A549 human alveolar epithelial cell. The data set can be described thus: Growth inhibition (cytotoxicity), A549 assay, Cell Titer Glo. In kind it is cell-based. As to conditions: A549, 72 h, A549 cells, 72 hour incubation. Here is the method: (§1) The cytotoxicity of each of the MC compounds as described herein was evaluated in the following cell types: A549 human alveolar epithelial cell, PC3 human prostate carcinoma cell, COLO205 human colon adenocarcinoma cell, HEPG2 human hepatoma, OVCAR3 human ovary adenocarcinoma cell, and HL60 human acute myelocytic leukemia (AML) cell.
(§2) A549, PC3, COLO205 and HEPG2 cells were cultured in DMEM (Invitrogen Corporation) with 10% fetal bovine serum, whereas OVCAR3 and HL60 were cultured in the same medium but with 20% fetal bovine serum. For cytotoxocoty measurements the cells were seeded in 96 or 384 well tissue culture treated microtitre plates overnight. Compounds were diluted in appropriate buffers and added to the cells the next day. Following a further 72 hour incubation, cell viability was determined using Cell Titer Glo (Promega Corporation) according to the manufacturers' instructions, and the luminescence measured in Luminoskan Ascent (Thermo Fisher Scientific Inc.).

The subject of data set [3] is OVCAR3 human ovary adenocarcinoma cell. The data set can be described thus: Growth inhibition (cytotoxicity), OVCAR3 assay, Cell Titer Glo. In kind it is cell-based. As to conditions: Homo sapiens, OVCAR-3, 72 h, OVCAR3 cells, 72 hour incubation. Here is the method:
as §1, §2

Data set [4] deals with PC3 human prostate carcinoma cell. Put plainly: Growth inhibition (cytotoxicity), PC3A assay, Cell Titer Glo. In kind it is cell-based. To be noted: PC-3, 72 h, PC3 cells, 72 hour incubation. On the procedure: as §1, §2
A short description of data set [5]: Stability determination at PBS pH7.2. As to conditions: PBS pH 7.2, pH 7.2, PBS pH7.2, 37° C.; read-out: T1/2, PBS buffer stability assay. Format: physicochemical. Here is the method: Around 0.1 mg of the dried sample was placed in a 2-mL vial, added with 1 mL of PBS pH7.2 and then mixed using a Vortex mixer. The mixture was filtered through a 4 mm Nylon filter with 0.2 μm pore size and the filtrate collected in an hplc vial. The vial was placed in an hplc autosampler maintained at 37° C. just before injection (time=0 h). The stability of the sample was calculated by determining the amount left in solution at specific time intervals. This study was carried out in three trials with the buffer solution as a blank.

On to `CC[C@H](OC)[C@@H](C)[C@H]1O[C@@H]1C(NCCCN1CCOCC1)C(C)(O)/C=C/C=C(\C)C1OC(=O)C[C@H](O)CC[C@@](C)(O)[C@@H](OC(C)=O)/C=C/[C@@H]1C.O=CO` (single isomer, unassigned) [MC-009b], for which the half-life at 50 μM in data set [1] was > 30 min.
As for `CC[C@H](OC)[C@@H](C)[C@H]1O[C@@H]1C1C(Cc2ccccc2)C(=O)OC1(C)/C=C/C=C(\C)C1OC(=O)C[C@H](O)CC[C@@](C)(O)[C@@H](OC(C)=O)/C=C/[C@@H]1C` (single isomer, unassigned) [MC-012a], in data set [2], the IC50 is ≤ 1 µM.
Turning to `CC[C@H](OC)[C@@H](C)[C@H]1O[C@@H]1C(NCc1ccc(Br)cc1)C(C)(O)/C=C/C=C(\C)C1OC(=O)C[C@H](O)CC[C@@](C)(O)[C@@H](OC(C)=O)/C=C/[C@@H]1C.O=CO` (single isomer, unassigned) [MC-014b], the half-life at 50 μM in data set [1] is > 30 min.
Consider `CC[C@H](OC)[C@@H](C)[C@H]1O[C@@H]1C(NCCc1ccc(Cl)cc1Cl)C(C)(O)/C=C/C=C(\C)C1OC(=O)C[C@H](O)CC[C@@](C)(O)[C@@H](OC(C)=O)/C=C/[C@@H]1C` (single isomer, unassigned) [MC-017b], for which the IC50 in data set [2] is ≤ 1 µM.
The same measure, in the same setting: the same measure for `CC[C@H](OC)[C@@H](C)[C@H]1O[C@@H]1C(NCc1c(Cl)cccc1Cl)C(C)(O)/C=C/C=C(\C)C1OC(=O)C[C@H](O)CC[C@@](C)(O)[C@@H](OC(C)=O)/C=C/[C@@H]1C` (single isomer, unassigned) [MC-018a]: ≤ 1 µM; for `CC[C@H](OC)[C@@H](C)[C@H]1O[C@@H]1C(NCc1cccc(Cl)c1)C(C)(O)/C=C/C=C(\C)C1OC(=O)C[C@H](O)CC[C@@](C)(O)[C@@H](OC(C)=O)/C=C/[C@@H]1C` (single isomer, unassigned) [MC-027a]: ≤ 1 µM.
Regarding `CC[C@H](OC)[C@@H](C)[C@H]1O[C@@H]1C(NCc1ccc2c(c1)OCO2)C(C)(O)/C=C/C=C(\C)C1OC(=O)C[C@H](O)CC[C@@](C)(O)[C@@H](OC(C)=O)/C=C/[C@@H]1C.O=CO` (single isomer, unassigned) [MC-030a], the 50% inhibitory concentration (IC50) in data set [3] and in data set [4] was ≤ 0.1 µM throughout. In data set [1], the half-life at 50 μM was > 30 min.
For `CC[C@H](OC)[C@@H](C)[C@H]1O[C@@H]1C(NCc1ccc(N2CCCNCC2)cc1)C(C)(O)/C=C/C=C(\C)C1OC(=O)C[C@H](O)CC[C@@](C)(O)[C@@H](OC(C)=O)/C=C/[C@@H]1C` (single isomer, unassigned) [MC-041a], the half-inhibitory concentration (IC50) in data set [2] was ≤ 1 µM.
For the molecule `CC[C@H](OC)[C@@H](C)[C@H]1O[C@@H]1C(NCc1ccc2[nH]ccc2c1)C(C)(O)/C=C/C=C(\C)C1OC(=O)C[C@H](O)CC[C@@](C)(O)[C@@H](OC(C)=O)/C=C/[C@@H]1C.O=CO` (single isomer, unassigned) [MC-043a], the half-life at 50 μM in data set [1] was > 30 min.
For `CC[C@H](OC)[C@@H](C)[C@H]1O[C@@H]1C(NCc1ccc(NC2CC2)cc1)C(C)(O)/C=C/C=C(\C)C1OC(=O)C[C@H](O)CC[C@@](C)(O)[C@@H](OC(C)=O)/C=C/[C@@H]1C` (single isomer, unassigned) [MC-044a], in data set [2], the IC50 is ≤ 1 µM.
For `CC[C@H](OC)[C@@H](C)[C@H]1O[C@@H]1C(NCc1ccc(Cl)nc1)C(C)(O)/C=C/C=C(\C)C1OC(=O)C[C@H](O)CC[C@@](C)(O)[C@@H](OC(C)=O)/C=C/[C@@H]1C.O=CO` (single isomer, unassigned) [MC-046a], the half-life at 50 μM in data set [1] was > 30 min.
In the case of `CC[C@H](OC)[C@@H](C)C1O[C@@H]1C(NCc1ccc(Cl)nc1)C(C)(O)/C=C/C=C(\C)[C@H]1OC(=O)C[C@H](O)CC[C@@](C)(O)[C@@H](OC(C)=O)/C=C/[C@@H]1C` (stereo in doubt) [MC-046], the half-life at 0.1 mg/mL in data set [5] was > 30 min.
In the case of `CC[C@H](OC)[C@@H](C)C1O[C@@H]1C(N(C)Cc1ccc(Cl)cc1)C(C)(O)/C=C/C=C(\C)[C@H]1OC(=O)C[C@H](O)CC[C@@](C)(O)[C@@H](OC(C)=O)/C=C/[C@@H]1C` (stereo in doubt) [MC-047], the half-life at 0.1 mg/mL in data set [5] was > 30 min.
Regarding `CC[C@H](OC)[C@@H](C)[C@H]1O[C@@H]1C(N(CCO)Cc1ccc2ccccc2c1)C(C)(O)/C=C/C=C(\C)[C@H]1OC(=O)C[C@H](O)CCC(C)(O)[C@@H](OC(C)=O)/C=C/[C@@H]1C` (stereo in doubt) [MC-051], in data set [2], the IC50 is ≤ 1 µM.
The same measure, in the same setting: for `CC[C@H](OC)[C@@H](C)[C@H]1O[C@@H]1C(N(CCO)Cc1ccc(C(F)(F)F)cc1)C(C)(O)/C=C/C=C(\C)[C@H]1OC(=O)C[C@H](O)CCC(C)(O)[C@@H](OC(C)=O)/C=C/[C@@H]1C` (stereo in doubt) [MC-053] the value was ≤ 1 µM; for `CC[C@H](OC)[C@@H](C)[C@H]1O[C@@H]1C(NCc1ccccc1)C(C)(/C=C/C=C(\C)[C@H]1OC(=O)C[C@H](O)CCC(C)(O)[C@@H](OC(C)=O)/C=C/[C@@H]1C)NCc1ccccc1` (some centres unmarked) [MC-001], ≤ 1 µM.
Take `CC[C@H](OC)[C@@H](C)[C@H]1O[C@@H]1C(NCc1ccc(F)c(F)c1)C(C)(O)/C=C/C=C(\C)[C@H]1OC(=O)C[C@H](O)CC[C@@](C)(O)[C@@H](OC(C)=O)/C=C/[C@@H]1C.O=CO` (some centres unmarked) [MC-029]: the 50% inhibitory concentration (IC50) in data set [3] and in data set [4] was ≤ 0.1 µM in each case. Besides, the half-life at 50 μM in data set [1] is > 30 min.
On to `CC[C@H](OC)[C@@H](C)[C@H]1O[C@@H]1C(NCc1ccc2c(c1)OCO2)C(C)(O)/C=C/C=C(\C)C1OC(=O)C[C@H](O)CC[C@@](C)(O)[C@@H](OC(C)=O)/C=C/[C@@H]1C` (some centres unmarked) [MC-030], for which the half-life at 0.1 mg/mL in data set [5] is > 30 min.
On to `CC[C@H](OC)[C@@H](C)[C@H]1O[C@@H]1C(NCc1ccc(Cl)cc1F)C(C)(O)/C=C/C=C(\C)[C@H]1OC(=O)C[C@H](O)CC[C@@](C)(O)[C@@H](OC(C)=O)/C=C/[C@@H]1C.O=CO` (some centres unmarked) [MC-032], for which the IC50 in data set [3] and in data set [4] was ≤ 0.1 µM each time. Besides, the half-life at 50 μM in data set [1] is > 30 min.
As for `CC[C@H](OC)[C@@H](C)[C@H]1O[C@@H]1C(NCC1CCCCCC1)C(C)(O)/C=C/C=C(\C)[C@H]1OC(=O)C[C@H](O)CC[C@@](C)(O)[C@@H](OC(C)=O)/C=C/[C@@H]1C.O=CO` (some centres unmarked) [MC-034], the half-life at 5 μM in data set [1] (5 μm, read-out: T1/2, 5 μm microsomal stability assay) is 6.1 min. Besides, the IC50 in data set [2] is ≤ 1 µM.
As to `CC[C@H](OC)[C@@H](C)[C@H]1O[C@@H]1C(NCc1ccc(N2CCOCC2)cc1)C(C)(O)/C=C/C=C(\C)C1OC(=O)C[C@H](O)CC[C@@](C)(O)[C@@H](OC(C)=O)/C=C/[C@@H]1C` (some centres unmarked) [MC-037d], the half-life at 50 μM in data set [1] was > 30 min.
`CC[C@H](OC)[C@@H](C)[C@H]1O[C@@H]1C(NCc1ccc(N2CC(C)OC(C)C2)cc1)C(C)(O)/C=C/C=C(\C)C1OC(=O)C[C@H](O)CC[C@@](C)(O)[C@@H](OC(C)=O)/C=C/[C@@H]1C` (some centres unmarked) [MC-042c]: the IC50 in data set [2] is ≤ 1 µM.
For `CC[C@H](OC)[C@@H](C)[C@H]1O[C@@H]1C(NCc1ccc2[nH]ccc2c1)C(C)(O)/C=C/C=C(\C)C1OC(=O)C[C@H](O)CC[C@@](C)(O)[C@@H](OC(C)=O)/C=C/[C@@H]1C` (some centres unmarked) [MC-043c], the half-inhibitory concentration (IC50) in data set [2] is ≤ 1 µM.
Same read-out and setting: for `CC[C@H](OC)[C@@H](C)[C@H]1O[C@@H]1C(N(CCCO)Cc1ccc(Cl)cc1)C(C)(O)/C=C/C=C(\C)[C@H]1OC(=O)C[C@H](O)CC[C@@](C)(O)[C@@H](OC(C)=O)/C=C/[C@@H]1C` (some centres unmarked) [MC-045] the value was ≤ 1 µM.
Still for that read-out and setting: for `CC[C@H](OC)[C@@H](C)[C@H]1O[C@@H]1C(NS(=O)(=O)c1ccc(F)c(F)c1)C(C)(O)/C=C/C=C(\C)C1OC(=O)C[C@H](O)CCC(C)(O)[C@@H](OC(C)=O)/C=C/[C@@H]1C` (some centres unmarked) [MC-58b] the value was ≤ 1 µM.

(Values after US20110237566A1, “Therapeutic Macrolide Compounds and Their Use” (MERLION PHARMACEUTICALS PTE LTD, priority 2008, published 2011).)
